Laboratory results published in patent publication US9504702B2, “Methods of inhibition of protein fucosylation in vivo using fucose analogs” (Seattle Genetics, Inc., priority 2010, dated 2016).
Read-outs that look alike come from different tables or passages of the source.

How the values were obtained:
[1] = system: antibody core fucosylation (CHO DG44 cell line producing humanized IgG1 anti-CD70 antibody h1F6); assay: Inhibition of antibody core fucosylation in CHO DG44 cell culture producing h1F6; type: cell-based; settings: day 5, CHO DG44 h1F6; for Inhibition at 50 μM: 50 μM fucose analog, read-out: Inhibition at 50 μM; for inhibition at 1000 µM: 1 mM fucose analog
Method in brief: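 CHO DG44 cells producing h1F6 were seeded at 7.5×10^5 cells/mL in medium with IGF, penicillin and streptomycin plus fucose analog at 50 μM or 1 mM, grown at 37 °C, 5% CO2 with shaking. On day 5 the antibody was purified from supernatant by protein A and eluted, then neutralized with Tris pH 8.0.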

[2] = system: circulating white blood cells and neutrophils; lymph nodes; assay: Leukocytosis and lymph node cellularity following oral dosing; type: in vivo, Female Balb/c mice
Description: (§1) The effects of a fucose analog on leukocytosis and E-selectin binding were eamined in mice. Female Balb/c mice were given oral 2-fluorofucose (SGD-2083) in the drinking water or left untreated. Mice were bled prior to dosing and then weekly for three weeks to assess circulating cell numbers and their ability to bind E-selectin. In one study, 2-fluorofucose was formulated at 1 mM, 10 mM or 100 mM in the drinking water (n=3 per group). At day 14, mice were treated with TiterMAX® Classic adjuvant (Sigma) to stimulate polyclonal, antigen non-specific antibody production by B cells, and remained on the 2-fluorofucose-containing water through day 21. In a second study, mice were given oral 2-fluorofucose formulated at 10 mM and 100 mM in the drinking water for three weeks without any other treatments (n=6). On day 21, a pool of lymph nodes (axillary, brachial, superficial inguinal, and mesenteric) from each of three animals was assessed in addition to blood. Lymph nodes were homogenized into single cell suspensions, and total cell numbers were determined by counting on a hemcytometer, using Trypan Blue for dead cell exclusion. To determine total white cell numbers/μL blood, samples of blood from individual animals were counted on a hemacytometer, using Turk's solution (0.01% gentian violet in 3% acetic acid) to exclude red blood cells (RBCs). RBCs were eliminated from the remainder of the blood by osmotic lysis for flow cytometric analysis. Cells were incubated with anti-Gr-1-FITC antibodies (BD Biosciences) to identify neutrophils, and a recombinant E-selectin-human Fc fusion protein (R&D Systems). Cells were washed and then incubated with a PE-labeled goat anti-human IgG-Fc secondary antibody (Jackson Immunoresearch) to detect bound E-selectin. Samples were collected on a FACSCalibur flow cytometer and analyzed using CellQuest software. The percentage of Gr-1+ cells was determined and absolute number of neutrophils was calculated using the total white cell number from the hemacytometer count. In addition, flow samples were gated for Gr-1+ cells to assess E-selectin binding to neutrophils by histogram analysis. The geometric mean of the E-selectin fluorescent signal was determined from the histogram.

[3] = system: LS174T colon adenocarcinoma; assay: Xenograft of pre-treated LS174T cells (Example 7, Study 2); type: in vivo, female nude mice; settings: 20 mM in drinking water
Description: To further evaluate the activity of these fucose analogs, further studies were performed in vivo using tumor cells that had been pre-treated by culturing in the presence of a fucose analog, or using untreated tumor cells. Tumor cells were implanted into 10 mice per group as follows. For the LS174T, PC-3, and Caki-1 cell lines, 5×10^5 cells in 25% Matrigel were implanted subcutaneously into female nude mice. For HL-60 and Ramos cell lines, 5×10^6 cells were implanted subcutaneously into female SCID mice. For mice implanted with untreated tumor cells, mice were provided regular drinking water. For mice implanted with tumor cells pre-treated with 2-fluorofucose (SGD-2083), the mice were provided drinking water supplemented with 20 mM 2-fluorofucose (SGD-2083). For mice implanted with tumor cells pre-treated with alkylnyl fucose (SGD-1887), the mice were provided with regular drinking water.
After 3 weeks of receiving 2-fluorofucose-containing drinking water, mice were returned to regular drinking water, except for mice with Caki-1 tumors. The latter mice were returned to regular drinking water for one week. After the week of receiving regular water, mice were randomized to two groups of 5 each to receive drinking water supplemented with 20 mM 2-fluorofucose or regular drinking water. Mice were sacrificed when tumors reached about 1000 mm^3.

[4] = system: LS174T, PC-3, HL-60, Ramos, and Caki-1 cell lines; assay: Cell surface fucosylation of human-derived cell lines cultured with fucose analog, FACS (Example 7, Study 1); type: cell-based; settings: 100 μM, two weeks
Description: Human-derived cell lines were evaluated for their susceptibility to the fucose analog 2-fluorofucose in vitro. The cells lines were: LS174T colon adenocarcinoma, […], HL-60 acute mylogenous leukemia, Ramos Burkitt lymphoma, and Caki-1 renal cell carcinoma. The cell lines were cultured in the presence of 100 μM 2-fluorofucose (SGD-2083) in growth media, 100 μM alkynylfucose (SGD-1887) in growth media, or control growth media (without a fucose analog) for two weeks. The growth media were MEM Eagle with 10% FBS (LS174T), 50:50 F12 and RPMI with 10% FBS (PC-3), RPMI with 10% FBS (HL-60), IMDM with 10% FBS (Ramos), and McCoy with 10% FBS ([…]). The cells were evaluated for cell surface fucosylation by FACS using antibody cBR96 to detect LewisY, antibody SSEA-1 to detect LewisX, P-selectin ligand to detect P-selectin, and AOL lectin to detect the general level of fucosylation.

[5] = system: E-selectin binding to neutrophils; assay: E-selectin binding to neutrophils following oral dosing, flow cytometry; type: in vivo, Female Balb/c mice
Description: as §1, with “In addition, flow samples were gated for Gr-1+ cells to assess E-selectin binding to neutrophils by histogram analysis.” left out

[6] = oral in drinking water, dose-dependent

Structure (SMILES) | Inhibition at 50 μM ([1]; 120 h) [%] | inhibition at 1000 µM ([1]; 120 h) [%] | Inhibition at 50 μM ([1]; CHO-DG44, 120 h) [%] | inhibition at 1000 µM ([1]; CHO-DG44, 120 h) [%] | effect on circulating white blood cells and neutrophils ([2]; 1 mM in drinking water) | effect on circulating white blood cells and neutrophils ([2]; 10 mM and 100 mM in drinking water) | cellularity in the lymph nodes ([2]; day 21, second study, 10 mM and 100 mM in drinking water, more severe at 100 mM) | circulating white blood cells and neutrophils [2, 6] | tumor growth [3] | inhibition of protein fucosylation, compared with alkynyl fucose (SGD-1887) [4] | effect on E-selectin binding to neutrophils ([5]; 1 mM) | effect on E-selectin binding to neutrophils ([5]; 10 mM and 100 mM) | E-selectin binding to neutrophils [5, 6]
C#CC(OC(C)=O)[C@@H](OC(C)=O)[C@@H](OC(C)=O)[C@@H](C=O)OC(C)=O (stereo partly shown) [SGD-1890, 5-ethynylarabinose tetraacetate] | > 80 | > 80 | – | – | – | – | – | – | – | – | – | – | –
C[C@H](O)[C@@H](O)[C@@H](O)[C@H](F)C=O [SGD-2083, 2-fluoro-2-deoxy fucose] | – | – | > 80 | > 80 | very little effect | increasing effect | marked decreased | increase | tumor growth inhibition in vivo was seen | generally a better inhibitor | little effect | increasing effects | decreased
